In patent US20150344466A1 (SUMITOMO CHEMICAL COMPANY, LIMITED, priority 2013, published 2015) one finds pest or weed control data, which are given here for six compounds.

What all share (type): in vivo
The test system of experiment [1] is Culex pipiens pallens. The experiment is described as follows: Knockdown spray test on adult Culex pipiens pallens (Test Example 4). The following applies: topical, 0.25 h, active ingredient 0.1% w/v, 0.5 ml sprayed, within 15 minutes, read-out: knockdown rate of the test insects within 15 minutes. The method in brief: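 Ten adult mosquitoes in a gauze-covered cup inside a 46×46×70 cm chamber were sprayed with 0.5 ml of test solution from 30 cm at 0.4 kg/cm^2. The cup was removed at once, and knocked-down insects were counted at 2, 5 and 15 min; knockdown rate (%) = knocked-down/tested ×100.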

The subject of another experiment is Aphis gossypii. As to the kind of experiment: Foliar spray test on Aphis gossypii on cucumber (Test Example 8). The following applies: 144 h, 500 ppm spray 20 ml/cup, Sir days after spraying, read-out: controlling value. The procedure:
On the other hand, cucumber was planted in a polyethylene cup and grown until the first true leaf was spread, and about 20 Aphis gossypii were allowed to parasitize the cucumber. One day after, the test spray solution was sprayed to the cucumber at a ratio of 20 ml/cup. Sir days after spraying, the number of Aphis gossypii was investigated, and the controlling value was calculated according to the following equation. Controlling value (%)={1−(Cb×Tai)/(Cai×Tb)}×100 In the equation, the symbols represent as follows. Cb: the number of insects in a non-treated section before treatment Cai: the number of insects in a non-treated section on observation Tb: the number of insects in a treated section before treatment Tai: the number of insects in a treated section on observation

Experiment [2] has as its system Musca domestica. As to the kind of experiment: Knockdown spray test on adult Musca domestica (Test Example 3). The following applies: topical, 0.25 h, active ingredient 2.0% w/v, 0.5 ml sprayed, within 15 minutes, read-out: knockdown rate of the test insects within 15 minutes. The method in brief:
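Ten adult house flies (5 male, 5 female) in a gauze-covered cup sprayed with 0.5 ml test solution from 30 cm at 0.9 kg/cm^2 inside a chamber, then removed. Knocked-down flies counted at 2, 5 and 15 min and expressed as % of insects tested.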

Experiment [3] has as its system Adoxophyes orana fasciata. The experiment is described as follows: Spray test on Adoxophyes orana fasciata on apple seedling (Test Example 12). The following applies: 168 h, first-instar larvae of Adoxophyes orana fasciata on apple seedling, 20 ml spray, seven days after spraying. The procedure: On the other hand, 20 ml of the test spray solution was each sprayed on an apple seedling (28 days after sowing, a tree height of about 15 cm) planted in a plastic cup. After the drug solution sprayed on the apple was air-dried, about 30 first-instar larvae of Adoxophyes orana fasciata were released. Seven days after spraying, the number of surviving Adoxophyes orana fasciata on the apple seedling was investigated, and the controlling value was calculated according to the following equation. Controlling value (%)={1−(Cb×Tai)/(Cai×Tb)}×100 In the equation, the symbols represent as follows. Cb: the number of insects in a non-treated section before treatment Cai: the number of insects in a non-treated section on observation Tb: the number of insects in a treated section before treatment Tai: the number of insects in a treated section on observation

In a further experiment the test system is Plutella xylostella. As to the kind of experiment: Foliar spray test on Plutella xylostella on cabbage (Test Example 10). The following applies: 120 h, third instar larvae of Plutella xylostella on cabbage, 500 ppm spray 20 ml/cup, after five days, read-out: controlling value. An outline of the steps:
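Cabbage at the third–fourth true-leaf stage sprayed with test solution at 20 ml/cup, dried, then infested with 10 third-instar larvae. Insects counted after five days; controlling value (%) calculated from treated and non-treated counts before treatment and at observation.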

The next experiment relates to Spodoptera litura. As to the kind of experiment: Foliar spray test on Spodoptera litura on cabbage (Test Example 11). The following applies: 96 h, fourth instar larvae of Spodoptera litura on cabbage, 500 ppm spray 20 ml/cup, after 4 days, read-out: controlling value. The method in brief:
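Cabbage is grown in cups to the third–fourth true leaf and sprayed at 20 ml/cup. Once the spray has dried, 10 fourth-instar larvae are released per cup and survivors are counted after 4 days. Controlling value (%) is corrected using pre-treatment and observation counts in treated and untreated sections.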

The test system of experiment [4] is Blattella germanica. As to the kind of experiment: Knockdown spray test on Blattella germanica, 2.0% w/v oil formulation (Test Example 1). The following applies: topical, 0.25 h, active ingredient 2.0% w/v, 1.5 ml sprayed, within 15 minutes, read-out: knockdown rate of the test insects within 15 minutes. The method in brief:
(§1)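 Ten German cockroaches (5 males, 5 females) in a mesh-bottomed, butter-walled container were sprayed with 1.5 ml test solution from 60 cm at 0.42 kg/cm^2 inside a chamber.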

In experiment [5] the test system is Culex pipiens pallens. The experiment is described as follows: Larvicidal test on Culex pipiens pallens, eight days (Test Example 7). The following applies: 192 h; last-instar larvae of Culex pipiens pallens; 3.5 ppm in water; eight days later; read-out: death rate. The method in brief:
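Twenty last-instar larvae placed in 100 ml ion-exchanged water containing test drug at 3.5 ppm active ingredient. Mortality scored after eight days; death rate = dead/tested × 100.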

The subject of experiment [6] is Blattella germanica. The experiment is described as follows: Knockdown spray test on Blattella germanica, 0.1% w/v oil formulation (Test Example 2). The following applies: topical, 0.25 h, active ingredient 0.1% w/v, 1.5 ml sprayed, within 15 minutes, read-out: knockdown rate of the test insects within 15 minutes. An outline of the steps: as §1
Experiment [7] relates to Culex pipiens pallens. As to the kind of experiment: Larvicidal test on Culex pipiens pallens, one day (Test Example 6). The following applies: 24 h; last-instar larvae of Culex pipiens pallens; 3.5 ppm in water; one day later; read-out: death rate. The method in brief: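 Twenty last-instar larvae were placed in 100 ml ion-exchanged water holding 0.7 ml of a 500 ppm aqueous dilution of the formulated compound, giving 3.5 ppm active ingredient. Survival was scored after one day and death rate expressed as dead/tested × 100.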

Experiment [8] relates to Musca domestica. As to the kind of experiment: Filter paper/sucrose bait death rate test on Musca domestica (Test Example 5). The following applies: female imagoes of Musca domestica, 0.7 ml on filter paper, after 24 hours. An outline of the steps: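 Filter paper in a 5.5 cm cup dosed with 0.7 ml test drug solution, with 30 mg sucrose as bait. Ten female adult houseflies released and cup sealed. Dead insects counted after 24 h; death rate (%) = dead/tested × 100.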

SMILES strings stand for the structures. A value given as a limit tells only on which side of the number the result lay.

Take `O=C(NCC1CCOCC1)c1cc(COCc2cccc(C(F)(F)F)c2)on1` [(65)]: the pest or weed control at 0.1 % strength with Culex pipiens pallens [1] is at least 80%. Moreover, the pest or weed control at 500 ppm in the experiment on Aphis gossypii was at least 90%; in experiment [3], 100%; in the experiment on Plutella xylostella it was at least 90%; in the experiment with Spodoptera litura, at least 80%. The pest or weed control at 2 % strength in the experiment with Musca domestica [2] and with Blattella germanica [4] was at least 80% each time.
Take `O=C(NCC1CCOCC1)c1cc(COCc2ccc(Cl)c(Cl)c2)on1` [(73), N-(tetrahydropyran-4-ylmethyl)-5-(3,4-dichlorobenzyloxymethyl)isoxazole-3-carboxamide]: the pest or weed control at 3.5 ppm with Culex pipiens pallens [5] was at least 90%. The pest or weed control at 0.1 % strength with Culex pipiens pallens [1] and with Blattella germanica [6] was at least 80% throughout. The pest or weed control at 500 ppm is at least 90% in the experiment with Aphis gossypii, 100% in experiment [3], at least 90% with Plutella xylostella and at least 80% in the experiment with Spodoptera litura.
Turning to `O=C(NCC1CCOC1)c1cc(CCCCCCCOc2ccc3ccccc3n2)on1` (stereo not drawn) [(150), N-(tetrahydrofuran-3-ylmethyl)-5-[7-(2-quinolyloxy)heptyl]isoxazole-3-carboxamide], the pest or weed control at 3.5 ppm with Culex pipiens pallens [5] and in the experiment with Culex pipiens pallens [7] was at least 90% throughout. The pest or weed control at 0.1 % strength in the experiment on Culex pipiens pallens [1] was at least 80%. Further, in the experiment with Musca domestica [2], the pest or weed control at 2 % strength was at least 80%. In addition, the pest or weed control at 500 ppm is 100% in experiment [3], at least 90% in the experiment on Plutella xylostella and at least 90% with Musca domestica [8].
In the case of `O=C(NCC1CCOC1)c1noc(COCc2ccccc2)c1C(F)F` (stereo not drawn) [(171), N-(tetrahydrofuran-3-ylmethyl)-(5-benzyloxymethyl-4-difluoromethyl)isoxazole-3-carboxamide], the pest or weed control at 3.5 ppm with Culex pipiens pallens [5] and with Culex pipiens pallens [7] was at least 90% each time. In addition, the pest or weed control at 0.1 % strength with Culex pipiens pallens [1] was at least 80%. Further, the figures for the pest or weed control at 500 ppm (in experiment [3]; in the experiment on Plutella xylostella; in the experiment with Spodoptera litura) were 100%, at least 90% and at least 80%, respectively.
For the compound `O=C(NCC1CCOCC1)c1cc(COc2ccc(Cl)c(Cl)c2)on1` [(183)], the pest or weed control at 3.5 ppm in the experiment on Culex pipiens pallens [5] and in the experiment on Culex pipiens pallens [7] was at least 90% each time. Further, in the experiment with Culex pipiens pallens [1], the pest or weed control at 0.1 % strength was at least 80%. Besides, the pest or weed control at 500 ppm in experiment [3] was 100%; in the experiment with Spodoptera litura, at least 80%.
On to `O=C(NCC1CCOC1)c1cc(CCCc2ccc3c(c2)OCO3)on1` (stereo not drawn) [(234), N-(tetrahydrofuran-3-ylmethyl)-5-[3-(1,3-benzodioxolan-5-yl)propyl]isoxazole-3-carboxamide], for which the pest or weed control at 0.1 % strength in the experiment with Culex pipiens pallens [1] and in the experiment on Blattella germanica [6] was at least 80% throughout. In the experiment with Culex pipiens pallens [7], the pest or weed control at 3.5 ppm is at least 90%. The pest or weed control at 500 ppm was 100% in experiment [3], at least 90% in the experiment with Plutella xylostella, at least 90% with Musca domestica [8] and at least 80% with Spodoptera litura.
